This is an account of results in PMC10301603, “Potent and Selective Benzothiazole-Based Antimitotics with Improved Water Solubility: Design, Synthesis, and Evaluation as Novel Anticancer Agents” (Pharmaceutics, 2023).

For orientation: IC50 means the concentration at which inhibition is half-maximal. For orientation: solubility means how much of the substance goes into solution per volume. A lower solubility goes with little dissolved substance.

For data set [1], the system named is HEK-293 cells. As to the kind of experiment: Cell growth inhibition assay (MTT), non-tumorigenic cells. The format is cell-based, human. Conditions: Homo sapiens, HEK293, 72 h after drug exposure, non-tumorigenic cell line. As for the experimental part: (§1) The cell lines were obtained from ATTC (Manassas, VA, USA). HeLa (human cervix epithelioid carcinoma), MCF7 (human breast adenocarcinoma), HepG2 (human hepatocellular carcinoma), U87 MG (human glioblastoma), T98G (human glioblastoma), GL261 (murine glioma), LNCaP (human prostate cancer), PC-3 (human prostate cancer), and HEK-293 (human embryonic kidney) were grown in Dulbecco’s modified Eagle’s medium (DMEM, Gibco, Waltham, MA, USA), supplemented with 10% (v/v) heat-inactivated fetal bovine serum (HIFBS, Sigma-Aldrich, St. Louis, MO, USA)), 2 mM L-glutamine, 100 μg/mL streptomycin, and 100 units/mL penicillin (Gibco, Waltham, MA, USA) at 37 °C in saturated humidity atmosphere containing 95% air and 5% CO2. Cell line HT-29 (human colon carcinoma) was grown in Roswell Park Memorial Institute (RPMI) 1640 medium (Gibco, Whaltman, MA, USA) supplemented with 10% HIFBS, 100 μg/mL streptomycin, and 100 units/mL penicillin (Gibco, Whaltman, MA, USA) at 37 °C in humidified 95% air and 5% CO2 atmosphere. MycoAlert kit (Lonza, Norwest, Australia) was used to routinely check the presence of mycoplasma, and only mycoplasma-free cells were employed in the experiments.
(§2) Cells were plated in 96-well plates (100 µL/well) at the following concentrations: 30,000 cells/mL (HepG2, U87 MG, T98G, C6, LNCaP, PC3, and HT-29 cells) or 15,000 cells/mL (HeLa and MCF-7 cells). Previous experiments were performed to choose the optimal cell concentration (70–80% confluence) and avoid the formation of cell aggregates. Cells were incubated in complete DMEM or RPMI 1640 medium (see above) at 37 °C and 5% CO2 atmosphere for 24 h to allow for cell attachment to the plate. Then, every compound was added (10 µL/well) to a final concentration of 10 µM. Non-treated cells were used as negative controls. The antiproliferative activity of compounds was measured 72 h after the treatments using the MTT reagent (3-[4,5-dimethylthiazol-2-yl]-2,5-diphenyltetrazolium bromide), (MTT Thiazolyl Blue Tetrazolium Bromide, Sigma-Aldrich, St. Louis, MO, USA) dissolved in PBS at 5 mg/mL. Compounds showing antiproliferative effects at 10 µM were selected to determine their IC50 value. For that purpose, compounds were used at different concentrations ranging from 10^−10 to 10^−2 M. Measurements were performed in triplicate, and each experiment was repeated three times. The IC50 value was determined for every compound using Origin software (OriginLab, Washington, USA). To study the sensitivity to MDR efflux pumps of compounds, the IC50 values were determined by following the same procedure but in the presence of verapamil (final concentration of 10 µM).

Data set [2] has as its system bovine brain tubulin. Kind of data set: Tubulin polymerization inhibition (turbidimetry). In kind it is biochemical. Conditions: for Tubulin polymerization inhibition (in words): 10 µM; for % TPI: compounds tested at 10 µM, with respect to the negative control; for IC50: concentration inhibiting 50% of microtubular protein polymerization in vitro, read-out: TPI IC50. As for the experimental part: Microtubular protein was isolated from calf brain following the modified Shelanski method, based on temperature-dependent assembly/disassembly of tubulin [45]. The protein was stored at −80 °C, and its concentration was determined using the Bradford method before each use. Tubulin polymerization, which occurs when heating a buffered tubulin sample from 4 °C to 37 °C, is accompanied by an increase in the absorbance (at 450 nm) of the sample that was monitored by a Helios α spectrophotometer. […] Then, the temperature was adjusted to 4 °C, and the temperature being shifted to 37 °C allowed for the assembly process of tubulin. The turbidity caused by tubulin polymerization was measured by the increased absorbance at 450 nm. The increase in absorbance obtained for the control sample (without the ligand), which we considered to be 100% tubulin polymerization (0% inhibition), compared with the increase in absorbance determined for the sample containing ligands yielded the degree of tubulin polymerization inhibition (TPI), which is expressed as a percentage value. For the compounds displaying TPI values over 50% at 10 µM, the IC50 value for TPI was calculated. Measurements were performed in triplicate in two independent experiments using microtubular protein from different preparations.

Data set [3] deals with GL261 cells. As to the kind of experiment: Cell growth inhibition assay (MTT). The format is cell-based, murine. Conditions: Mus musculus, GL261, 72 h after drug exposure. As for the experimental part: as §1, §2
Data set [4] concerns T98G cells. Kind of data set: Cell growth inhibition assay (MTT). In kind it is cell-based, human. Conditions: Homo sapiens, T98G, 72 h after drug exposure. How it is done: as §1, §2
Data set [5] deals with HepG2 cells. As to the kind of experiment: Cell growth inhibition assay (MTT). The format is cell-based, human. Conditions: Homo sapiens, HepG2, 72 h after drug exposure. How it is done: as §1, §2
Data set [6] relates to HeLa cells. As to the kind of experiment: Cell growth inhibition assay (MTT). The format is cell-based, human. Conditions: Homo sapiens, HeLa, 72 h after drug exposure. How it is done: as §1, §2
Data set [7] relates to U87MG cells. Kind of data set: Cell growth inhibition assay (MTT). In kind it is cell-based, human. Conditions: Homo sapiens, U-87 MG; MTT, 72 h after drug exposure. How it is done: as §1, §2
Data set [8] has as its system LNCaP cells. As to the kind of experiment: Cell growth inhibition assay (MTT). In kind it is cell-based, human. Conditions: Homo sapiens, LNCaP, 72 h after drug exposure. As for the experimental part: as §1, §2
For data set [9], the system named is HT-29 cells. Kind of data set: Cell growth inhibition assay (MTT). In kind it is cell-based, human. Conditions: Homo sapiens, HT-29, 72 h after drug exposure. How it is done:
as §1, §2

Data set [10] concerns MCF7 cells. As to the kind of experiment: Cell growth inhibition assay (MTT). In kind it is cell-based, human. Conditions: Homo sapiens, MCF7; MTT, 72 h after drug exposure. As for the experimental part: as §1, §2
The test system of data set [11] is PC-3 cells. As to the kind of experiment: Cell growth inhibition assay (MTT). The format is cell-based, human. Conditions: Homo sapiens, PC-3, 72 h after drug exposure. As for the experimental part: as §1, §2
Data set [12] can be described thus: Aqueous solubility, shake-flask method. In kind it is physicochemical. Conditions: pH 7.0 buffer, pH 7, aqueous buffer, thermodynamic from solid, shaking flask, buffered media at pH 7.0, mean of three. As for the experimental part:
The aqueous solubility of compounds was measured in a Helios Alfa Spectrophotometer. Calibration lines at the maximum wavelength of absorbance were determined for each compound. Then, following the shake-flask method, a suspension of 5 mg of each compound in 500 µL in pH 7.0 buffer was stirred for 72 h at room temperature. The mixture was then filtrated over a […] filter to remove the insoluble fraction. The concentration of the compound in the resulting saturated solution was determined via UV absorbance measurement and interpolation in the calibration line. The aqueous solubility values are given as the average of three independent measurements.

Data set [13] has as its system HT-29 cells. As to the kind of experiment: Cell growth inhibition (MTT) in the presence of 10 µM verapamil (sensitivity to MDR efflux pumps). In kind it is cell-based, human. Conditions: 10 µM verapamil (P-gp/MDR1 inhibitor). How it is done:
as §2

Converted amounts (≈) assume the structure as drawn.

`COc1ccc2nc(N(Cc3[nH]cnc3C)C(C)=O)sc2c1` [Compound 22, N-(6-methoxybenzo[d]thiazol-2-yl)-N-((4-methyl-1H-imidazol-5-yl)methyl)acetamide]: the concentration for half-maximal inhibition (IC50) in [1], in data set [2], in data set [3], in data set [4], in [5] and in [6] was over 10 µM throughout. Also, the IC50 in data set [7], in [8], in [9], in data set [10], in data set [11] and in data set [13] was over 10 µM in each case. Besides, the “Tubulin polymerization inhibition (in words)” value in data set [2] is “not able to inhibit tubulin polymerization”. Moreover, in [2], the “% TPI” value worked out at 0%. Besides, the concentration in solution in data set [12] (solubility at 72 h) came to 171 µg/mL (≈ 540 µM).
For the compound `COc1ccc2nc(N(Cc3ccccc3)C(C)=O)sc2c1` [Compound 23, N-benzyl-N-(6-methoxybenzo[d]thiazol-2-yl)acetamide], the half-maximal inhibitory concentration (IC50) in [1] was over 10 µM; in [2], over 10 µM; in data set [3] it was 6.33 µM; in [4], over 10 µM; in data set [5], 4.29 µM; in [6], 3.9 µM. Moreover, the half-maximal inhibitory concentration (IC50) in data set [7] is 7.51 µM; in data set [8], 4.95 µM; in data set [9], over 10 µM; in data set [10], 6.3 µM; in [11], over 10 µM; in data set [13], over 10 µM. The “% TPI” value in data set [2] came out at 3%. The compound also had a solubility at 72 h in [12] of 13 µg/mL (≈ 41.6 µM).
Regarding `COc1ccc2nc(N(Cc3ccc4ccccc4c3)C(C)=O)sc2c1` [Compound 24, N-(6-methoxybenzo[d]thiazol-2-yl)-N-(naphthalen-2-ylmethyl)acetamide], the IC50 in data set [1], in [2], in data set [3], in data set [4], in data set [5] and in [6] was over 10 µM throughout. The concentration for half-maximal inhibition (IC50) in [7], in data set [8], in data set [9], in data set [10], in [11] and in [13] was over 10 µM in each case. Besides, the “Tubulin polymerization inhibition (in words)” value in data set [2] is on record as “not able to inhibit tubulin polymerization”. The “% TPI” value in [2] was found to be 0%. Also, in data set [12], the solubility at 72 h was under 9 µg/mL.
On to `CCNC(=O)N(Cc1ccccc1)c1nc2ccc(OC)cc2s1` [Compound 11, 1-benzyl-3-ethyl-1-(6-methoxybenzo[d]thiazol-2-yl)urea], for which the IC50 in data set [1] was over 10 µM; in [2], over 10 µM; in [3], 2.93 µM; in [4] it was over 10 µM; in data set [5] it was 2.45 µM; in data set [6], 2.71 µM. Further, the IC50 was 2.91 µM in data set [7]; 2.37 µM in data set [8]; over 10 µM in data set [9]; 2.04 µM in data set [10]; over 10 µM in [11]; over 10 µM in data set [13]. In data set [2], the “% TPI” value amounted to 6%. The same compound displayed a solubility at 72 h in [12] of 16 µg/mL (≈ 46.9 µM).
Take `CCNC(=O)N(Cc1ccc2ccccc2c1)c1nc2ccc(OC)cc2s1` [Compound 12, 3-ethyl-1-(6-methoxybenzo[d]thiazol-2-yl)-1-(naphthalen-2-ylmethyl)urea]: the IC50 in [1], in [2], in data set [3], in data set [4], in data set [5] and in [6] was over 10 µM in each case. For the same compound, the concentration for half-maximal inhibition (IC50) in data set [7], in [8], in [9], in data set [10], in [11] and in data set [13] was over 10 µM throughout. In addition, the “Tubulin polymerization inhibition (in words)” value in data set [2] was “not able to inhibit tubulin polymerization”. Further, in data set [2], the “% TPI” value came to 0%. This compound showed a solubility at 72 h in data set [12] of under 9 µg/mL.
With `COc1ccc2nc(N(Cc3ccncc3)C(C)=O)sc2c1` [Compound 21, N-(6-methoxybenzo[d]thiazol-2-yl)-N-(pyridin-4-ylmethyl)acetamide], the IC50 was over 10 µM in data set [1]; over 10 µM in data set [2]; 1.59 µM in data set [3]; 2.3 µM in data set [4]; 1.49 µM in data set [5]; 1.22 µM in [6]. Further, the half-inhibitory concentration (IC50) in [7] is 1.27 µM; in [8], 1.81 µM; in [9] it was 2.23 µM; in data set [10], 1.97 µM; in [11], 2.63 µM; in [13] it was 2.55 µM. Further, the “% TPI” value in [2] was determined as 41%. This compound also gave a solubility at 72 h in [12] of 90 µg/mL (≈ 287 µM).
`COc1ccc2nc(NCc3ccccc3)sc2c1` [Compound 5, N-benzyl-6-methoxybenzo[d]thiazol-2-amine]: the IC50 in data set [1] is over 10 µM; in data set [2], over 10 µM; in data set [3], 7.25 µM; in data set [4] it was over 10 µM; in [5], 5.78 µM; in [6], 4.36 µM. Also, the IC50 in data set [7] is 8.31 µM; in data set [8], 5.97 µM; in data set [9], over 10 µM; in data set [10], 6.31 µM; in data set [11], over 10 µM; in data set [13] it was over 10 µM. Further, in data set [2], the “% TPI” value is 0%. This compound also showed a solubility at 72 h in [12] of 5 µg/mL (≈ 18.5 µM).
